In patent publication US9150617B2, “Immunoregulatory peptides and methods of use” (13 Therapeutics, Inc., priority 2009, dated 2015):

Tests used:
[1] = tested on: TNF-α secretion from RAW264.7 cells; test: Inhibition of TNF-α secretion from RAW264.7 cells stimulated with CpG-ODN (ELISA); format: cell-based, murine; settings: CpG stimulation, 1.25 ug/ml CpG-ODN
Protocol: (§1) RAW264.7 (murine monocyte/macrophage cells (American Type Culture Collection) were cultured at 37° C. in a 5% CO2 humidified incubator and grown in DMEM (Invitrogen Life Technologies) supplemented with 10% (v/v) heat-inactivated FCS, 1.5 mM L-glutamine, 100 U/ml penicillin, and 100 μg/ml streptomycin.
(§2) RAW264.7 cells were plated at 1.5×10^5 cells/well −3×10^5 cells/well in 48-well plates. After 24 hours, the cells were incubated with peptides at various concentrations at room temperature in triplicate either before, simultaneous with, or after activation with various PAMPs for 18 hours. Cell-free supernatants were analyzed for cytokines by ELISA, in quadruplicate. RAW264.7 cells were stimulated with either CpG-ODN (1 μg/ml or 1.25 μg/ml), LPS (about 1 ng/ml), Poly (I:C) (about 10 μg/ml), flagellin (about 5 ng/ml), or zymosan (about 10 μg/ml). Dose response curves were done with each PAMP to determine optimal stimulation concentration. For CpG-ODN stimulation, cells were incubated for 4 hours at 37° C., supernatants collected, and TNF-α measured by ELISA. Any cytokine involved in inflammatory disease mediated toll receptor signaling can be measured using similar assays.
The effect of several peptides on TNF-α secretion from RAW264.7 cells in response to stimulation by CpG-ODN was studied. Each peptide was initially tested at 3 concentrations, 37 μM, 22.2 μM, and 11.1 μM. […] The peptides were then tested at 11.1 μM, 7.4 μM, and 3.7 μM (Table 3). […] Cell viability was examined for each peptide at the concentrations tested for TNF-α inhibition.
(§3) Inhibition of TNF-α secretion by various T-peptides was examined. RAW264.7 cells were plated at 3×10^5 cells/well in 48-well plates. After 24 h the cells were incubated with peptide at various concentrations at room temperature in triplicate for 15 minutes and then stimulated with 1.25 ug/ml CpG-ODN or 1 ng/ml LPS. Cells were then incubated for 4 hours at 37° C., supernatants collected, and TNF-α measured by ELISA. Percent inhibition was calculated by comparing TNF-α secretion from cells incubated with peptide to control cells with no peptide treatment. The inhibition by peptides T3, T11, T21, T36, T37, T51 and T52 were compared to inhibition by an analogue of P13 having a sequence of nine arginine residues (SEQ ID NO: 379) at the C-terminus (P13-R^9; SEQ ID NO: 378). (Table 4).

[2] = tested on: LPS-induced septic shock in mice; test: Mouse model of LPS-induced septic shock; format: in vivo
Protocol: BALB/c mice are injected i.p. with PBS, LPS at about 100 μg/mouse/250 μl, or about 100 μg LPS plus various doses of peptides. Serum is collected at about 2 and about 6 hours after treatment and evaluated for the pro-inflammatory cytokines MIP-2 and TNF-α by ELISA, and for soluble ICAM-1.

[3] = tested on: TNF-α secretion from RAW264.7 cells; test: Inhibition of TNF-α secretion from RAW264.7 cells stimulated with LPS (ELISA); format: cell-based, murine; settings: LPS Stimulation, 1 ng/ml LPS
Protocol: as §1, §2, §3

[4] = tested on: middle ear inflammation in BALB/c mice; test: Middle ear inflammation, heat-inactivated S. pneumoniae plus peptide injected into the middle ear; format: in vivo, mouse; settings: heat-inactivated S. pneumoniae into middle ears of BALB/c mice
Protocol: Induction of otitis media: BALB/c (Bagg albino) mice, about 8-12 weeks of age, are anesthetized with a subcutaneous injection of xylazine & ketamine (about 0.1 mg/30 gm body weight) and their ears examined under the operating microscope to assure they are free of infection or perforation. One group of animals is injected with PBS (Phospho-buffered saline) in one ear and with about 10 μM of a peptide of Table 1 in the opposite ear, to determine the effect of peptide without added bacteria. A second group of animals receive about 5.0 μl of PBS plus heat-inactivated S. pneumoniae (about 10^9 CFU/ml) in one ear and about 5.0 μl of peptide (about 10 μM) plus heat-inactivated S. pneumoniae (about 10^9 CFU/ml) in the opposite ear. […] Inflammation is quantified by measuring 1) area of fluid present in the middle ear; 2) number of cells in middle ear fluid; and 3) thickness of the tympanic membrane (TM) taken at a point away from the injection site. Data are obtained from mice (n=18) injected with PBS alone for each of the histological parameters measured, to serve as a control group.
At the end of the experimental treatment, mice are killed and tissues collected for histology. […] This enables all histologic embedding, sectioning, staining, and analysis to be done on the two sides simultaneously to reduce any impact of processing variables on the subsequent quantitative analyses. […]

[5] = tested on: toll-like receptor-dependent signaling; test: Cytokine secretion in response to TLR activation; format: cell-based
Protocol: as §2

DIVKLTVYDCIRRRRRRRRR [P13-R^9]
Percent Inhibition of TNF-α secretion ([1]; 7.1 μM peptide): 32% | Percent Inhibition of TNF-α secretion ([1]; 11.1 μM peptide): 65% | Percent Inhibition of TNF-α secretion ([1]; 22 μM peptide): 86% | pro-inflammatory mediators [2]: reduce pro-inflammatory mediators | Percent Inhibition of TNF-α secretion ([3]; 7.4 uM peptide): 0% | Percent Inhibition of TNF-α secretion ([3]; 11.1 uM peptide): 13% | Percent Inhibition of TNF-α secretion ([3]; 22.2 uM peptide): 69% | bacterial-induced inflammatory response in the middle ear [4]: dramatically reduced | cytokine secretion in response to TLR activation [5]: effectively inhibits
